Series [1] is described as follows: water solubility of the active ingredient. The class given is physicochemical. As for the experimental part:
Brivaracetam is a very water soluble active ingredient (ca. 700 mg/ml), and it is not obvious to slow down the release of the drug.

The next series in a line: BCS classification. The class given is physicochemical. As to the method:
Considering Brivaracetam is classified as BCS I, the resulting in vitro dissolution (USP <711> apparatus no 2) in a buffered aqueous media has to show a drug release of no more than 40% after 1 hour of dissolution, of 35%-80% after 4 hours of dissolution and of no less than 80% after 16 hours of dissolution. Preferably, a profile of no more than 35% after 1 hour of dissolution, of 40%-75% after 4 hours of dissolution and of no less than 80% after 16 hours of dissolution. More preferably a profile of no more than 30% after 1 hour of dissolution, of 45%-70% after 4 hours of dissolution and of no less than 80% after 16 hours of dissolution.

SMILES strings stand for the structures. Converted amounts (≈) assume the structure as drawn.

By solubility is commonly meant the concentration that dissolves in the medium under given conditions. The low end stands for a poorly soluble substance, the high end for a readily soluble substance.

`CCC[C@@H]1CC(=O)N([C@@H](CC)C(N)=O)C1` [Brivaracetam, (2S)-2-[(4R)-2-oxo-4-propyl-pyrrolidin-1-yl]butanamide] showed a solubility in series [1] of approximately 700 mg/mL (≈ 3300 mM). Besides, the BCS class result in the series “BCS classification” is listed as “BCS I”.

The record behind these values is patent publication US8435564B2, “Pharmaceutical compositions comprising brivaracetam” (UCB Pharma, S.A., priority 2008, dated 2013).
